The values below come from patent publication US10683293B2, “Optionally fused heterocyclyl-substituted derivatives of pyrimidine useful for the treatment of inflammatory, metabolic, oncologic and autoimmune diseases” (NUEVOLUTION A/S, priority 2014, dated 2020).

The term IC50 denotes the concentration needed to halve the response being measured. A higher IC50 goes with a need for much substance. For orientation: inhibition means the change of the read-out against control, counted positive when it falls.

The first assay deals with T1, human RORγt (Ligand Binding Domain) (Homo sapiens, UniProt P51449).
T1 construct: purchased Crelux (Planegg, Germany) batch no PC5032-1
T1 sequence (P51449 269-508 limits assumed): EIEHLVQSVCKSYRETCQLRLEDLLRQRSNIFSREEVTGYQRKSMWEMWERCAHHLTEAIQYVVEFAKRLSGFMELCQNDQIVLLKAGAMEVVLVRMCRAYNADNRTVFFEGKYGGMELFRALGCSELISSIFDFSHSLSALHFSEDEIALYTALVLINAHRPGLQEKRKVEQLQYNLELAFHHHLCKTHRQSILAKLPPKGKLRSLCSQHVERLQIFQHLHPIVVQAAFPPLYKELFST
Nature of the assay: Fluorescence Polarization (FP) Assay. The conditions noted are these: 100 nM human RORγt LBD, 25 nM TAMRA probe, values are activity range bounds. In outline: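 In vitro fluorescence polarization binding assay on the RORγt ligand-binding pocket. A TAMRA-labelled RORγt ligand probe (MW 910 g/mol) was used, with DMSO as negative control.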
In general terms: Fluorescence polarisation rises when a labelled molecule tumbles more slowly, as on binding a larger partner.
`CCCn1nc(C)cc1CN(C)c1ncnc(NCC2CCN(S(=O)(=O)C(F)F)CC2)c1F` [Example A149, N6-[[1-(difluoromethylsulfonyl)-4-piperidyl]methyl]-5-fluoro-N4-methyl-N4-[(5-methyl-2-propyl-pyrazol-3-yl)methyl]pyrimidine-4,6-diamine] had an IC50 of less than 500 nM.

`CC(=O)N1CCC(CNc2ncnc(N(Cc3ccc(C(F)(F)F)cc3)C3CC3)c2F)CC1` [Example A11, 1-[4-[[[6-[cyclopropyl-[[4-(trifluoromethyl)phenyl]methyl]amino]-5-fluoro-pyrimidin-4-yl]amino]methyl]-1-piperidyl]ethanone]: the concentration for half-maximal inhibition (IC50) is less than 500 nM.

Consider `OCC1(CNc2ncnc(N(Cc3ccc(C(F)(F)F)cc3)C3CC3)c2F)COC1` [Example A26, [3-[[[6-[cyclopropyl-[[4-(trifluoromethyl)phenyl]methyl]amino]-5-fluoro-pyrimidin-4-yl]amino]methyl]oxetan-3-yl]methanol], for which the IC50 was less than 500 nM.

Regarding `O=C(O)C(CNc1ncnc(N(Cc2ccc(C(F)(F)F)cc2)C2CC2)c1F)C1CCOCC1` (centres unmarked) [Example A184, 3-[[6-[cyclopropyl-[[4-(trifluoromethyl)phenyl]methyl]amino]-5-fluoro-pyrimidin-4-yl]amino]-2-tetrahydropyran-4-yl-propanoic acid], the IC50 was less than 10000 nM.

Take `CN(Cc1ccc(-n2cccn2)cc1)c1ncnc(NCC2(CS(C)(=O)=O)CCOCC2)c1F` [Example A133, 5-fluoro-N6-methyl-N4-[[4-(methylsulfonylmethyl)tetrahydro-pyran-4-yl]methyl]-N6-[(4-pyrazol-1-ylphenyl)methyl]pyrimidine-4,6-diamine]: the IC50 was less than 2000 nM.

`CS(=O)(=O)Cc1ccc(CNc2ncnc(N(Cc3ccc(C(F)(F)F)cc3)C3CC3)c2F)cc1` [Example A37, N4-cyclopropyl-5-fluoro-N6-[[4-(methylsulfonylmethyl)phenyl]methyl]-N4-[[4-(trifluoromethyl)phenyl]methyl] pyrimidine-4,6-diamine]: the IC50 was less than 500 nM.

Turning to `CN(Cc1cccc(-n2cccn2)c1)c1ncnc(NCc2ccc(CS(C)(=O)=O)cc2)c1F` [Example A144, 5-fluoro-N6-methyl-N4-[[4-(methylsulfonylmethyl)phenyl]methyl]-N6-[(3-pyrazol-1-ylphenyl)methyl]pyrimidine-4,6-diamine], the IC50 is less than 10000 nM.

For `N#Cc1ccc(CNc2ncnc(N(Cc3ccc(C(F)(F)F)cc3)C3CC3)c2F)cc1` [Example A39, 4-[[[6-[cyclopropyl-[[4-(trifluoromethyl)phenyl]methyl]amino]-5-fluoro-pyrimidin-4-yl]amino]methyl]benzonitrile], the IC50 was less than 500 nM.

For the molecule `O=S1(=O)CCOC(CNc2ncnc(N(Cc3ccc(C(F)(F)F)cc3)C3CC3)c2F)C1` (centres unmarked) [Example A35, N6-cyclopropyl-N4-[(4,4-dioxo-1,4-oxathian-2-yl)methyl]-5-fluoro-N6-[[4-(trifluoromethyl)phenyl]methyl] pyrimidine-4,6-diamine], the IC50 is less than 500 nM.

Molecule `CN(Cc1ccc(-n2cccn2)cc1)c1ncnc(NCc2ccc(S(N)(=O)=O)cc2)c1F` [Example A135, 4-[[[5-fluoro-6-[methyl-[(4-pyrazol-1-ylphenyl)methyl]amino]pyrimidin-4-yl]amino]methyl]benzenesulfonamide] had an IC50 of less than 10000 nM.

Regarding `COc1ccc(CNc2ncnc(N(Cc3ccc(C(F)(F)F)cc3)C3CC3)c2F)cn1` [Example A25, N6-cyclopropyl-5-fluoro-N4-[(6-methoxy-3-pyridyl)methyl]-N6-[[4-(trifluoromethyl)phenyl]methyl] pyrimidine-4,6-diamine], the IC50 was less than 500 nM.

For `CCN(Cc1cn(CC)nc1C)c1ncnc(NCc2ccc(CC(N)=O)cc2)c1F` [Example A123, 2-[4-[[[6-[ethyl-[(1-ethyl-3-methyl-pyrazol-4-yl)methyl]amino]-5-fluoro-pyrimidin-4-yl]amino]methyl]phenyl]acetamide], the IC50 is less than 10000 nM.

As to `CC(C)C1CCC(CNc2ncnc(N(Cc3ccc(C(F)(F)F)cc3)C3CC3)c2F)CC1` (centres unmarked) [Example A33, N6-cyclopropyl-5-fluoro-N4-[(4-isopropylcyclohexyl)methyl]-N6-[[4-(trifluoromethyl)phenyl]methyl] pyrimidine-4,6-diamine], the IC50 is less than 500 nM.

For `COc1ccc(CN(C)c2ncnc(N(Cc3ccc(C(F)(F)F)cc3)C3CC3)c2F)cn1` [Example A24, N6-cyclopropyl-5-fluoro-N4-[(6-methoxy-3-pyridyl)methyl]-N4-methyl-N6-[[4-(trifluoromethyl)phenyl]methyl] pyrimidine-4,6-diamine], the IC50 was less than 500 nM.

Turning to `Cc1cnc(CNc2ncnc(N(Cc3ccc(C(F)(F)F)cc3)C3CC3)c2F)cn1` [Example A159, N4-cyclopropyl-5-fluoro-N6-[(5-methylpyrazin-2-yl)methyl]-N4-[[4-(trifluoromethyl)phenyl]methyl] pyrimidine-4,6-diamine], the IC50 was less than 500 nM.

`CS(=O)(=O)Nc1ncc(CNc2ncnc(N(Cc3ccc(C(F)(F)F)cc3)C3CC3)c2F)cn1` [Example A111, N-[5-[[[6-[cyclopropyl-[[4-(trifluoromethyl)phenyl]methyl]amino]-5-fluoro-pyrimidin-4-yl]amino]methyl]pyrimidin-2-yl]methanesulfonamide] gave an IC50 of less than 1000 nM.

On to `CN(Cc1cccc(OC(F)F)c1)c1ncnc(NCc2ccc(CC(N)=O)cc2)c1F` [Example A127, 2-[4-[[[6-[[3-(difluoromethoxy)phenyl]methyl-methyl-amino]-5-fluoro-pyrimidin-4-yl]amino]methyl]phenyl]acetamide], for which the IC50 is less than 500 nM.

The molecule `NC(=O)Cc1ccc(CNc2ncnc(N(Cc3ccc(C(F)(F)F)nn3)C3CC3)c2F)cc1` [Example A99, 2-[4-[[[6-[cyclopropyl-[[6-(trifluoromethyl)pyridazin-3-yl]methyl]amino]-5-fluoro-pyrimidin-4-yl]amino]methyl]phenyl]acetamide] gave an IC50 of less than 10000 nM.

As to `CS(=O)(=O)CC1(CNc2ncnc(N(Cc3ccc(C(F)(F)F)cc3)C3CC3)c2F)CCOCC1` [Example A31, N6-cyclopropyl-5-fluoro-N4-[[4-(methylsulfonylmethyl)tetrahydro-pyran-4-yl]methyl]-N6-[[4-(trifluoromethyl)phenyl]methyl] pyrimidine-4,6-diamine], the IC50 was less than 500 nM.

Turning to `CC(C)(C)OC(=O)NCC(c1ccc(C(F)(F)F)cc1)N(c1ncnc(NCc2ccc(CC(N)=O)cc2)c1F)C1CC1` (centres unmarked) [Example A47, tert-butyl N-[2-[[6-[[4-(2-amino-2-oxo-ethyl)phenyl]methylamino]-5-fluoro-pyrimidin-4-yl]-cyclopropyl-amino]-2-[4-(trifluoromethyl)phenyl]ethyl] carbamate], the concentration for half-maximal inhibition (IC50) was less than 10000 nM.

The next assay deals with T2, ligand binding domain of human RORγ (Homo sapiens, UniProt P51449).
T2 construct: host or cells: HEK293t
T2 sequence (P51449 269-508 limits assumed): T1 sequence (P51449 269-508 limits assumed)
Nature of the assay: RORγ Reporter Assay (Gal4). Format: cell-based. The conditions noted are these: HEK-293T, 1 μM test compound, HEK293t RORγ reporter cells, 24 hour; read-out: Gal4 activity range @ 1 μM (% inhibition). The protocol:
The activity of the compounds was evaluated using a Fluorescence Polarization (FP) Assay and, RORγ Reporter assay (also referred to as Gal4 assay). The FP assay is an in vitro assay monitoring binding within the ligand binding pocket. The RORγ and the Th17 assays (another suitable assay) are both cell-based assays monitoring functional activity of the compound assayed.
RORγ Reporter Assay (Gal4)
Cell-based RORγ functional assays were performed using a commercially available assay product (INDIGO Biosciences, State College, Pa., USA; product # IB04001). The RORγ reporter cells are HEK293t cells transfected with one vector that provides high level constitutive expression of a hybrid protein comprised of the yeast Gal4-DNA binding domain fused to the ligand binding domain of human RORγ, and a second vector comprising the firefly luciferase cDNA functionally linked to the upstream activation sequence (UAS) of yeast Gal4. A suspension of RORγ Reporter Cells was prepared using the protocol and culture medium provided in the kit product, and 100 μl of the Reporter Cell suspension was then dispensed into wells of a white, collagen-treated, 96-well assay plate. Concentrated stocks of test compounds were prepared in DMSO, then further diluted using media provided in the kit to generate ‘2×-concentration’ treatment media. 100 μl of medium for each respective treatment concentration dispensed into triplicate assay wells, thereby combining with the reporter cells. All media formulations contained 10% charcoal stripped Fetal Bovine Serum, but are otherwise proprietary to INDIGO Biosciences. Final treatment concentrations for each test compound were 1,000 nM and 100 nM, each with 0.1% residual DMSO. Separate control treatments were media supplemented with vehicle only (0.1% DMSO) to determine the constitutive level of RORγ activity in the reporter cells, and the reference inverse-agonist ursolic acid (f.c. 6,000 nM to 8.2 nM in 3-fold decrements) to establish a positive control inverse-agonist dose response. Assay plates were placed in a 37° C., 5% CO2, 85% humidity incubator for 24 hour. Treatment media were then discarded, 100 μl of luciferase detection reagent was added to each well, and relative light units (RLUs) were quantified from each assay well using a plate reading luminometer. Values of average RLU+/−standard deviation were computed for all treatment sets, followed by the calculations of fold-reduction: [Average RLUVehicle/Average RLUTest Cmpd]. Percent-reduction of RORγ activity in response to respective test compound treatments was calculated: [100*(1−[Ave RLUTest Cmpd/Ave RLUVehicle)] where the theoretical minimum reduction (0% reduction) derives from Vehicle treatment only, no treatment compound. In some aspects it may be of interest to provide compounds with selective modulation of RORγ for example compounds that are selective to RORγ over RORα, compounds that are selective for RORγ versus RORPβ, and compounds that are selective for RORγ versus BOTH RORα and RORPβ. It may also be of interest to provide compounds that are selective for RORγ versus further nuclear hormone receptors such as CAR1, FXR, GR, LXRα, LXRβ, PPARα, PXR, RARα, RXRα, TRα, VDR. It is apparent to those skilled in the art that these nuclear hormone receptors are merely examples, and that selectivity against other nuclear receptors may also be of interest. It may for example be of interest to provide compounds that modulate RORγ and one or more further nuclear hormone receptors, as well as compounds that modulate both RORγ and RORα, or RORγ and RORβ. It may also be of interest to provide compounds that modulate RORγ and BOTH RORα and RORP, as well as compounds that modulate both RORγ and one or more further nuclear hormone receptors such as CAR1, FXR, GR, LXRα, LXRβ, PPARα, PXR, RARα, RXRα, TRα, VDR. It is apparent to those skilled in the art that these nuclear hormone receptors are merely examples, and that modulation of even other nuclear receptors may also be of interest. […]
In general terms: In a reporter assay the amount or activity of a reporter protein is the signal.
In the case of `CCCn1nc(C)cc1CN(C)c1ncnc(NCC2CCN(S(=O)(=O)C(F)F)CC2)c1F` [Example A149, N6-[[1-(difluoromethylsulfonyl)-4-piperidyl]methyl]-5-fluoro-N4-methyl-N4-[(5-methyl-2-propyl-pyrazol-3-yl)methyl]pyrimidine-4,6-diamine], the inhibition at 1 µM is greater than 20%.

In the case of `CC(=O)N1CCC(CNc2ncnc(N(Cc3ccc(C(F)(F)F)cc3)C3CC3)c2F)CC1` [Example A11, 1-[4-[[[6-[cyclopropyl-[[4-(trifluoromethyl)phenyl]methyl]amino]-5-fluoro-pyrimidin-4-yl]amino]methyl]-1-piperidyl]ethanone], the inhibition at 1 µM is greater than 80%.

Still in this assay, the particulars now being: RORγ Reporter Assay (Gal4), HEK293t reporter cells, compound at 0.1 μM; values are activity range bounds.
As to `CC(=O)N1CCC(CNc2ncnc(N(Cc3ccc(C(F)(F)F)cc3)C3CC3)c2F)CC1` [Example A11, 1-[4-[[[6-[cyclopropyl-[[4-(trifluoromethyl)phenyl]methyl]amino]-5-fluoro-pyrimidin-4-yl]amino]methyl]-1-piperidyl]ethanone], the “Gal4 activity range @ 0.1 μM (% inhibition)” value is reported as greater than 50 % inhibition.
